Patent publication US6784201B2, “Benzothiepines having activity as inhibitors of ileal bile acid transport and taurocholate uptake” (G.D. Searle & Company, priority 1994, dated 2004)

Target: ACAT
Assay: Acyl-CoA; cholesterol acyl transferase (ACAT), rat intestinal microsomes
Format: biochemical
Settings: read-out: ACAT intestine IC(50)
Procedure: Acyl-CoA; Cholesterol Acyl Transferase (ACAT)
Hamster liver and rat intestinal microsomes were prepared from tissue as described previously (Reference: (1980) J. Biol. Chem. 255, 9098) and used as a source of ACAT enzyme. The assay consisted of a 2.0 ml incubation containing 24 μM Oleoyl-CoA (0.05 μCi) in a 50 mM sodium phosphate, 2 mM DTT ph 7.4 buffer containing 0.25% BSA and 200 μg of microsomal protein. The assay was initiated by the addition of oleoyl-CoA. The reaction went for 5 min at 37° C. and was terminated by the addition of 8.0 ml of chloroform/methanol (2:1). […] The chloroform phase was taken to dryness and then spotted on a silica gel 60 TLC plate and developed in hexane/ethyl ether (9:1). The amount of cholesterol ester formed was determined by measuring the amount of radioactivity incorporated into the cholesterol oleate spot on the TLC plate with a Packard instaimager.

## CCCC[C@]1(CC)CS(=O)(=O)c2cc(OC)ccc2[C@@H](c2ccccc2)[C@H]1O [Example 25, (3α,4β,5β) 3-Butyl-3-ethyl-4-hydroxy-8-methoxy-5-phenyl-2,3,4,5-tetrahydrobenzothiepine-1,1-dioxide]
  IC50: 8 µM
